Patent US20170197935A1, “INHIBITORS OF DNA GYRASE FOR THE TREATMENT OF BACTERIAL INFECTIONS” (Vitas Pharma Research Private Limited, priority 2012, published 2017)
≈ marks a conversion by molar mass, not a printed value. Like-named read-outs stand apart in the source and are kept apart here.

Tests used:
[1] = test system: Streptococcus pneumoniae (ATCC 6301); assay: MIC by microbroth dilution, Streptococcus pneumoniae ATCC 6301; type: cell-based; settings: ATCC6301
Method: (§1) Shown below are the microbiological activities of representative compounds of Formula I of the invention. The compounds were tested by the microbroth dilution method (National committee for Clinical Laboratory Standards, 2011, […]-08) and the Minimum Inhibitory Concentration (MIC) was determined.

[2] = test system: Staphylococcus aureus (ATCC 29213); assay: MIC by microbroth dilution, Staphylococcus aureus ATCC 29213; type: cell-based; settings: ATCC29213
Method: as §1

MRSA E9823 = assay: MIC against FQ resistant clinical strain MRSA E9823; type: cell-based; settings: Staphylococcus aureus, fluoroquinolone resistant clinical strain, read-out: MIC against FQ resistant strains, MRSA E9823
Method: (§2) Shown below are the microbiological activities of representative compounds of Formula I of the invention. The compounds were tested by the microbroth dilution method (National committee for Clinical Laboratory Standards, 2011, M07-08) and the Minimum Inhibitory Concentration (MIC) was determined.
(§3) To test if compounds are able to overcome fluoroquinolone resistance, we have determined the MICS against Fluoroquinolone (FQ) resistant clinical strains of MRSA and E. coli.

E. coli (ATCC 25922) = assay: MIC by microbroth dilution, E. coli ATCC 25922; type: cell-based; settings: Escherichia coli
Method: as §2
(§4) Analysis of microbiological activity of compounds shown below are the microbiological activities of representative compounds of Formula II of the invention. The compounds were tested by the microbroth dilution method as per the reference in Example 1.

[3] = test system: Methicillin resistant Staphylococcus aureus (ATCC 33591); assay: MIC by microbroth dilution, MRSA ATCC 33591; type: cell-based
Method: as §2, §4

MRSA E9749 = assay: MIC against FQ resistant clinical strain MRSA E9749; type: cell-based; settings: Staphylococcus aureus, fluoroquinolone resistant clinical strain, read-out: MIC against FQ resistant strains, MRSA E9749
Method: as §2, §3

[4] = test system: Enterococcus faecalis (ATCC 29212); assay: MIC by microbroth dilution, Enterococcus faecalis ATCC 29212; type: cell-based; settings: ATCC29212
Method: as §1

[5] = test system: K. pneumoniae (ATCC 700603); assay: MIC by microbroth dilution, K. pneumoniae ATCC 700603; type: cell-based; settings: Klebsiella pneumoniae, ATCC700603, Formula I compounds
Method: as §2, §4

[6] = test system: Moraxella catarrhalis (ATCC 8176); assay: MIC by microbroth dilution, Moraxella catarrhalis ATCC 8176; type: cell-based; settings: ATCC8176
Method: as §1

hERG = hERG (Homo sapiens, UniProt Q12809); assay: biochemical
Method: To test the ability of the VT-03 compounds to bind the hERG channel, membranes expressing the hERG channel were incubated with radiolabeled Astemizole and displacement of the labeled ligand in the presence of compounds was measured.
To test the ability of the VT-03 compounds (of Formula II) to bind the hERG channel, membranes expressing the hERG channel were incubated with radiolabeled Astemizole and displacement of the labeled ligand in the presence of compounds was measured.

E. coli Gyrase = molecular target: T1, E. coli Gyrase (Escherichia coli, UniProt P0AES4+P0AES6); assay: in vitro Gyrase supercoiling assay (Inspiralis kit); type: biochemical; settings: 1 hour at 37° C., read-out: % inhibition of DNA supercoiling activity
T1 construct: purchased Inspiralis
Method: To test for target specificity, the activity of compounds was evaluated in an in vitro Gyrase assay using recombinant Gyrase protein as per the instructions of the assay kit (Inspiralis). The assay measures the ability of E. coli Gyrase to convert relaxed plasmid DNA into the supercoiled form. The enzyme is incubated with the substrate (relaxed DNA) in the presence and absence of compounds for 1 hour at 37° C. and the DNA is run on a gel at low voltage for several hours. The gel is then stained with Ethidium bromide and DNA in the different forms is quantified using DNA imaging and quantification software (Image Lab). The activity of the enzyme is proportional to the amount of supercoiled form detected.

[7] = Single dose pharmacokinetics in male Swiss albino mice; type: in vivo; settings: mouse, in vivo; for bioavailability: oral 10 mg/kg vs i.v. 5 mg/kg
Method: (§5) Compounds were dosed to male Swiss albino mice to determine the pharmacokinetic profiles.
as §5

Pseudomonas ATCC 27853 = assay: MIC by microbroth dilution, Pseudomonas ATCC 27853; type: cell-based; settings: ATCC27853, Formula II compounds, read-out: Minimum Inhibitory Concentration (MIC) Pseudomonas ATCC 27853
Method: as §2, §4

Acinetobacter BAA747 = assay: MIC by microbroth dilution, Acinetobacter BAA747; type: cell-based; settings: Formula II compounds, read-out: Minimum Inhibitory Concentration (MIC) Acinetobacter BAA747
Method: as §2, §4

E. faecalis ATCC 51299 = assay: MIC by microbroth dilution, E. faecalis ATCC 51299; type: cell-based; settings: Enterococcus faecalis, ATCC51299, Formula II compounds, read-out: Minimum Inhibitory Concentration (MIC) E. faecalis ATCC 51299
Method: as §2, §4

[8] = molecular target: T2, ciprofloxacin resistant recombinant Gyrase protein (with mutation S83L) (Escherichia coli, UniProt P0AES4+P0AES6, S83L); assay: Gyrase supercoiling assay with ciprofloxacin resistant Gyrase (S83L); type: biochemical; settings: read-out: Target specificity: % inhibition of supercoiling activity
T2 construct: purchased Inspiralis
Method: The enzyme is incubated with the substrate (relaxed DNA) in the presence and absence of compounds for 1 hour at 37° C. and the DNA is run on a gel at low voltage for several hours. The amount of supercoiled DNA is quantified using DNA imaging and quantification software (Image Lab). The activity of the enzyme is proportional to the amount of supercoiled form detected.

[9] = ATCC25922, Formula I compounds, read-out: MIC E. coli (ATCC 25922)
[10] = ATCC33591, Formula I compounds, read-out: MIC Methicillin resistant Staphylococcus aureus (ATCC 33591)
[11] = ATCC25922, Formula II compounds, read-out: Minimum Inhibitory Concentration (MIC) E. coli ATCC 25922
[12] = Formula II compounds, read-out: Minimum Inhibitory Concentration (MIC) MRSA ATCC 33591

SMILES	MIC [1] [µg/mL]	MIC [2] [µg/mL]	MIC (E. coli (ATCC 25922); [9]) [µg/mL]	MIC [3, 10] [µg/mL]	MIC [4] [µg/mL]	MIC [5] [µg/mL]	MIC [6] [µg/mL]	IC50 (hERG) [µM]	AUC(0-t) ([7]; iv, 5 mg/kg) [ng·h/mL]	Cmax ([7]; iv, 5 mg/kg) [ng/mL]	Tmax ([7]; iv, 5 mg/kg) [min]	half-life ([7]; iv, 5 mg/kg) [min]	bioavailability [7] [%]	AUC(0-t) ([7]; oral, 10 mg/kg) [ng·h/mL]	Cmax ([7]; oral, 10 mg/kg) [ng/mL]	Tmax ([7]; oral, 10 mg/kg) [min]	MIC (Pseudomonas ATCC 27853) [µg/mL]	MIC (E. coli (ATCC 25922); [11]) [µg/mL]	MIC (Acinetobacter BAA747) [µg/mL]	MIC (E. faecalis ATCC 51299) [µg/mL]	other results
COc1ccc2ncc(=O)n(CCN3CCC(NCc4ccc(C)c([N+](=O)[O-])c4)CC3)c2c1 [VT-03-00062]	0.015 (≈ 0.0332 µM)	≤ 0.0075	0.5 (≈ 1.11 µM)	0.015 (≈ 0.0332 µM)	0.12 (≈ 0.266 µM)	8 (≈ 17.7 µM)	≤ 0.06														inhibition at 0.1 µM (E. coli Gyrase; 0.1 μM compound): 91.5%; inhibition at 1 µM (E. coli Gyrase; 1 μM compound): 98.7%; MIC (MRSA E9823): ≤ 0.0075 µg/mL; MIC (MRSA E9749): 0.015 µg/mL (≈ 0.0332 µM)
Cc1ccc(CNC2CCN(CCn3c(=O)cnc4ccc(F)cc43)CC2)cc1[N+](=O)[O-] [VT-03-00113]									402	672	9.6	22.2	1.16	9.3	15.6	30	8 (≈ 18.2 µM)	0.125 (≈ 0.284 µM)	0.25 (≈ 0.569 µM)	0.25 (≈ 0.569 µM)	MIC [3, 12]: 0.03 µg/mL (≈ 0.0683 µM); inhibition at 0.1 µM [8]: 90%; inhibition at 1 µM [8]: 94%
Cc1ccc(CNC2CCN(CCn3c(=O)cnc4ccc(Cl)nc43)CC2)cc1[N+](=O)[O-] [VT-03-00118]								> 30	497	913	9.6	22.2	1.12	9.3	18.6	60	8 (≈ 17.5 µM)	0.25 (≈ 0.547 µM)	0.25 (≈ 0.547 µM)	0.125 (≈ 0.274 µM)	half-life ([7]; oral, 10 mg/kg): 666 min; MIC [3, 12]: 0.015 µg/mL (≈ 0.0328 µM); inhibition at 0.1 µM [8]: 91.5%; inhibition at 1 µM [8]: 89%
COc1ccc2ncc(=S)n(CCN3CCC(NCc4ccc(C)c([N+](=O)[O-])c4)CC3)c2c1 [VT-03-00127]									527	478	9.6	120	18.8	198	97	30	8 (≈ 17.1 µM)	1 (≈ 2.14 µM)	1 (≈ 2.14 µM)	1 (≈ 2.14 µM)	half-life ([7]; oral, 10 mg/kg): 173 min; MIC [3, 12]: 0.125 µg/mL (≈ 0.267 µM); inhibition at 0.1 µM [8]: 39%; inhibition at 1 µM [8]: 72%

Second part, led by results:

MIC [1] [µg/mL]	MIC [2] [µg/mL]	MIC (E. coli (ATCC 25922); [9]) [µg/mL]	MIC [3, 10] [µg/mL]	MIC [4] [µg/mL]	MIC [5] [µg/mL]	MIC [6] [µg/mL]	SMILES	IC50 (hERG) [µM]	AUC(0-t) ([7]; iv, 5 mg/kg) [ng·h/mL]	Cmax ([7]; iv, 5 mg/kg) [ng/mL]	Tmax ([7]; iv, 5 mg/kg) [min]	half-life ([7]; iv, 5 mg/kg) [min]	bioavailability [7] [%]	AUC(0-t) ([7]; oral, 10 mg/kg) [ng·h/mL]	Cmax ([7]; oral, 10 mg/kg) [ng/mL]	Tmax ([7]; oral, 10 mg/kg) [min]	MIC (Pseudomonas ATCC 27853) [µg/mL]	MIC (E. coli (ATCC 25922); [11]) [µg/mL]	MIC (Acinetobacter BAA747) [µg/mL]	MIC (E. faecalis ATCC 51299) [µg/mL]	other results
1 (≈ 2.21 µM)	0.125 (≈ 0.277 µM)	16 (≈ 35.4 µM)	0.25 (≈ 0.554 µM)	4 (≈ 8.86 µM)			COc1ccc2ncc(C#N)c(CCN3CCC(NCc4ccc([N+](=O)[O-])s4)CC3)c2c1 [VT-03-00052]														MIC (MRSA E9823): 0.25 µg/mL (≈ 0.554 µM); MIC (MRSA E9749): 0.25 µg/mL (≈ 0.554 µM)
1 (≈ 2.21 µM)	0.25 (≈ 0.554 µM)	4 (≈ 8.86 µM)	0.25 (≈ 0.554 µM)	2 (≈ 4.43 µM)	> 32	0.5 (≈ 1.11 µM)	COc1ccc2ncc(C#N)c(CCN3CCC(NCc4csc([N+](=O)[O-])c4)CC3)c2c1 [VT-03-00053]	> 30													
0.03 (≈ 0.0607 µM)	0.015 (≈ 0.0304 µM)	1 (≈ 2.02 µM)	0.06 (≈ 0.121 µM)	0.25 (≈ 0.506 µM)	16 (≈ 32.4 µM)	0.5 (≈ 1.01 µM)	COc1ccc2ncc(C#N)c(CCN3CCC(NC(=O)c4ccc(Cl)c([N+](=O)[O-])c4)CC3)c2c1 [VT-03-00058]	> 30													
0.25 (≈ 0.526 µM)	0.25 (≈ 0.526 µM)	4 (≈ 8.41 µM)	0.5 (≈ 1.05 µM)	2 (≈ 4.21 µM)	> 32	0.25 (≈ 0.526 µM)	COc1ccc2ncc(C#N)c(CCN3CCC(NCc4ccc(OC)c([N+](=O)[O-])c4)CC3)c2c1 [VT-03-00063]	> 30													
